Assay results reported in patent US20060154970A1, “Alanines compounds, method of preparing them and their use” (priority 2003, published 2006).

Experiments:
[1] = tested on: 3T3-L1 preadipocytes; assay: Insulin-sensitizing activity in 3T3-L1 preadipocyte model, triglyceride accumulation in cells as indication of differentiation; type: cell-based; conditions: for The Percentage of Triglyceride Increased in 3T3-L1 Cells / activation at 0.01 µM / activation at 0.1 µM / activation at 1 µM: average data in 3 pores (Rosiglitazone: n = 22, mean ± SE); for insulin-sensitizing activity (in words): summary of table 2; for activation at 0.01 µM / activation at 0.1 µM / activation at 1 µM: Mus musculus, 3T3-L1, read-out: The Percentage of Triglyceride Increased in 3T3-L1 Cells
Protocol: Insulin-sensitizing agents can promote the differentiation of preadipocytes toward adipocytes, thus insulin-sensitizing agents could be identified according to the differentiation of pre-adipocytes. Following the methods reported in the literature [Kletzin B F. Mol. Pharm. 1991, 41, 393], the insulin-sensitizing activities of the compounds of formula (I) of the present invention were evaluated in 3T3-L1 pradipocyte model with triglyceride accumulation in cells as the indication of differentiation.
The 3T3-L1 preadipocytes were incubated in DMEM (Dulbecco's Modified Eagle's Medium) containing 10% NBS (newborn calf serum) and subcultured every 3 days. The calls were transferred to 24-pore plates, and after the pores were filled completely the cells were treated with IBMX (isobutylmethylxanthine) (0.5 mmol/L), DEX (dexamethasone) (1 μmol/L) and insulin (1.0 μmol/L) for 48 h. Different amounts of test compounds were incubated with the cells until the end of the experiment. Cells were collected and the contents of triglyceride and protein therein were determined by colorimetry. Enhancements of triglyceride in cells after drug-administrating were calculated.
The positive control group was rosiglitazone, and the solvent control group was a culturing medium containing 0.1% of DMSO. The enhancement of triglyceride in cells was determined in three different concentrations (0.01, 0.1, 1 μmol/L) of the tested compounds.

SMILES | The Percentage of Triglyceride Increased in 3T3-L1 Cells ([1]; concentration 0.01 μmol/L) [%] | The Percentage of Triglyceride Increased in 3T3-L1 Cells ([1]; concentration 0.1 μmol/L) [%] | The Percentage of Triglyceride Increased in 3T3-L1 Cells ([1]; concentration 1 μmol/L) [%] | insulin-sensitizing activity (in words) [1] | activation at 0.01 µM ([1]; concentration 0.01 μmol/L) [%] | activation at 0.1 µM ([1]; concentration 0.1 μmol/L) [%] | activation at 1 µM ([1]; concentration 1 μmol/L) [%] | melting point
Cc1oc(-c2ccccc2)nc1CCOc1ccc(C[C@H](NC(=O)[C@H]2CC[C@H](C(C)C)CC2)C(=O)O)cc1 (relative stereo) [Compound 1, (2S)-2-[N-(trans-4-isopropylcyclohexylcarbonyl)amino]-3-[4-[2-(5-methyl-2-phenyl-4-oxazole)ethoxy]phenyl]propionic acid] | 1.56 | 21.18 | 47.09 | stronger insulin-sensitizing activity | – | – | – | –
Cc1oc(-c2ccccc2)nc1CCOc1ccc(C[C@@H](NC(=O)[C@H]2CC[C@H](C(C)C)CC2)C(=O)O)cc1 [Compound 2, (2R)-2-[N-(trans-4-isopropylcyclohexylcarbonyl)amino]-3-[4-[2-(5-methyl-2-phenyl-4-oxazolyl)ethoxy]phenyl]propionic acid] | – | – | – | stronger insulin-sensitizing activity | 10.7 | 16.5 | 30.7 | 151 to 153 °C (dec.)
CC(C)[C@H]1CC[C@H](C(=O)N[C@@H](Cc2ccc(OCCN(C)c3nc4ccccc4o3)cc2)C(=O)O)CC1 [Compound 3, (2S)-2-[N-(trans-4-isopropylcyclohexylcarbonyl)amino]-3-[4-[2-[N-methyl-N-(2-benzoxazolyl)amino]ethoxy]phenyl]propionic acid] | – | – | – | – | -0.37 | 6.7 | 20 | 179 to 180 °C (dec.)
CC(C)[C@H]1CC[C@H](C(=O)N[C@H](Cc2ccc(OCCN(C)c3nc4ccccc4o3)cc2)C(=O)O)CC1 [Compound 4, (2R)-2-[N-(trans-4-isopropylcyclohexylcarbonyl)amino]-3-[4-[2-[N-methyl-N-(2-benzoxazolyl)amino]ethoxy]phenyl]propionic acid] | – | – | – | – | -4.77 | 5.05 | 11 | 179 to 180 °C
CC(C)[C@H]1CC[C@H](C(=O)N[C@@H](Cc2ccc(OCCn3ccc4ccccc43)cc2)C(=O)O)CC1 [Compound 5, (2S)-2-[N-(trans-4-isopropylcyclohexylcarbonyl)amino]-3-[4-[2-(1-indolyl)ethoxy]phenyl]propionic acid] | – | – | – | – | -1.54 | -4.64 | -6.92 | –
CC(C)[C@H]1CC[C@H](C(=O)N[C@@H](Cc2ccc(OCc3ccc(C(F)(F)F)cc3)cc2)C(=O)O)CC1 [Compound 7, (2S)-2-[N-(trans-4-isopropylcyclohexylcarbonyl)amino]-3-[4-(4-trifluoromethylbenzyloxy)phenyl]propionic acid] | – | – | – | – | 11.8 | 5.8 | 4.68 | 171 to 172 °C
CC(C)[C@H]1CC[C@H](C(=O)N[C@H](Cc2ccc(OCc3ccc(C(F)(F)F)cc3)cc2)C(=O)O)CC1 [Compound 8, (2R)-2-[N-(trans-4-isopropylcyclohexylcarbonyl)amino]-3-[4-(4-trifluoromethylbenzyloxy)phenyl]propionic acid] | – | – | – | – | – | – | – | 171 to 172 °C
CC(C)[C@H]1CC[C@H](C(=O)N[C@@H](Cc2ccc(OCc3ccccc3)cc2)C(=O)O)CC1 [Compound 9, (2S)-2-[N-(trans-4-isopropylcyclohexylcarbonyl)amino]-3-(4-benzyloxyphenyl)propionic acid] | – | – | – | – | 6 | 3.35 | -0.69 | 140 to 142 °C (dec.)
CC(C)[C@H]1CC[C@H](C(=O)N[C@H](Cc2ccc(OCc3ccccc3)cc2)C(=O)O)CC1 [Compound 10, (2R)-2-[N-(trans-4-isopropylcyclohexylcarbonyl)amino]-3-(4-benzyloxyphenyl)propionic acid] | – | – | – | – | – | – | – | 140 to 142 °C (dec.)
CCCCOc1ccc(C[C@H](NC(=O)[C@H]2CC[C@H](C(C)C)CC2)C(=O)O)cc1 [Compound 11, (2S)-2-[N-(trans-4-isopropylcyclohexylcarbonyl)amino]-3-(4-butoxyphenyl)propionic acid] | – | – | – | – | 0 | 0.36 | 2.23 | –
CCCCOc1ccc(C[C@@H](NC(=O)[C@H]2CC[C@H](C(C)C)CC2)C(=O)O)cc1 [Compound 12, (2R)-2-[N-(trans-4-isopropylcyclohexylcarbonyl)amino]-3-(4-butoxyphenyl)propionic acid] | – | – | – | – | – | – | – | 120 to 121 °C
CCOc1ccc(C[C@H](NC(=O)[C@H]2CC[C@H](C(C)C)CC2)C(=O)O)cc1 [Compound 13, (2S)-2-[N-(trans-4-isopropylcyclohexylcarbonyl)amino]-3-(4-ethoxyphenyl)propionic acid] | – | – | – | – | 1.89 | 1.83 | -4.74 | 168 to 170 °C
CCOc1ccc(C[C@@H](NC(=O)[C@H]2CC[C@H](C(C)C)CC2)C(=O)O)cc1 [Compound 14, (2R)-2-[N-(trans-4-isopropylcyclohexylcarbonyl)amino]-3-(4-ethoxyphenyl)propionic acid] | – | – | – | – | – | – | – | 168 to 170 °C
COc1ccc(C[C@H](NC(=O)[C@H]2CC[C@H](C(C)C)CC2)C(=O)O)cc1 [Compound 15, (2S)-2-[N-(trans-4-isopropylcyclohexylcarbonyl)amino]-3-(4-methoxyphenyl)propionic acid] | – | – | – | – | -0.21 | 5.99 | 5.04 | 149 to 151 °C
CC(C)[C@H]1CC[C@H](C(=O)N[C@@H](Cc2ccc(O)cc2)C(=O)O)CC1 [Compound 17, (2S)-2-[N-(trans-4-isopropylcyclohexylcarbonyl)amino]-3-(4-hydroxyphenyl)propionic acid] | – | – | – | – | 0.22 | 10.8 | 0.85 | 156 to 157 °C
CC(C)[C@H]1CC[C@H](C(=O)N[C@H](Cc2ccc(O)cc2)C(=O)O)CC1 [Compound 18, (2R)-2-[N-(trans-4-isopropylcyclohexylcarbonyl)amino]-3-(4-hydroxyphenyl)propionic acid] | – | – | – | – | – | – | – | 156 to 157 °C
CC(C)[C@H]1CC[C@H](C(=O)N[C@@H](Cc2ccc(OCCN(C)c3ccccn3)cc2)C(=O)O)CC1 [Compound 19, (2S)-2-[N-(trans-4-isopropylcyclohexylcarbonyl)amino]-3-[4-[2-[N-methyl-N-(2-pyridyl)amino]ethoxyl]phenyl]propionic acid] | – | – | – | – | -1.46 | -2.24 | -1.62 | 158 to 160 °C
